Test results taken from patent US20240248100A1, “SEPTAPEPTIDES ASSOCIATED WITH NEURODEGENERACY” (SEPTA THERAPEUTICS, INC., priority 2018, published 2024).
Entries after “also recorded” stand apart in the source; their conditions may differ.

Assays:
[1] = test system: RG cells; conditions: 1 mM dB-cAMP; cited from earlier work
[2] = test system: RG progenitor cells; assay: Maturation (mitogenic-like) activity on rat glial (RG) progenitor cell monolayers, scored visually; format: cell-based; conditions: 72 hours, above untreated baseline
Protocol: Since no appropriate CNS-derived cells are available for the detection of Ca^+2 mobilization, a continuous cell line of glial stem cells was established in culture in order to detect mitogenic-like effects scored upon visual examination. Glial cells from normal brain following kainic acid-induced lesions were established in continuous cell culture as previously described by Singh VK and Van Alstyne D., Brain Res (1978) 155:418-421.) Briefly, 1 ul of a solution of kainic acid monohydrate (Sigma), containing 5 nmole kainic acid in 0.9% saline, was injected into rat striatum under anaesthesia. Rats were anaesthetized and decapitated 5 days following injection and the brains were harvested immediately and placed in a sterile glass culture dish. The striatum from the injection site was dissected, placed in MEM (Gibco) containing 0.2% glucose, 10% fetal calf serum, 5 units/ml penicillin, 5 ug/ml streptomycin and then further minced using a sterile scalpel. The culture dish was then incubated at 37° C. in a humidified atmosphere containing 5% CO2. Each day for the first 3-4 days, the unattached tissue fragments were removed, washed once in fresh medium and returned to the culture dish until a complete monolayer was formed. The resulting monolayers were then subcultured every 5-6 days after trypsinization. The monolayers were treated with 0.25% trypsin (Gibco) for 5 minutes at 22° C. The cells were collected by low speed centrifugation, washed twice with complete growth medium, counted and replated in glass culture dishes. Once the cell line was established in glass dishes, the cells were then adapted and transferred to plastic culture dishes.
The mitogenic effect of diBcAMP on RG monolayers is shown in FIGS. 7A (untreated) and 7B (treated) cells after 24 hours. […] Mature cells were characterized using ThermoFisher Scientific CD11b and GFAP (Glial Fibrillary Acidic Protein) monoclonal antibodies AlexaFluor commonly used to detect microglial- and astrocyte-specific markers respectively. (Tran, E., et al. J. Neuroimmunology 74 (1997) 121-129). FIGS. 8A-8D show identical cells under brightfield illumination, with positive staining for microglial and astrocyte markers (CD11b and GFAP markers respectively. The identification of the majority of these cells as microglia, a subset of astrocytes, is significant since an overabundance of microglia has been associated with the development of AD (Weizmann Institute of Science, “The brain's rejuvenating cells,” Science Daily, 9 June, 2017:sciencedaily.com/release/2017/06/170609135903).
Peptides derived from amyloid beta and synthesized by Kinexus Inc. (Vancouver, Canada) were tested for their effects on RG cell cultures, according to the method of Yankner BR, et al., Science (1990) 250:279-282. Since septapeptides may be too small or unstable to form avid bonds with cell surface receptors, the 7 mer was bracketed within a slightly longer 10-mer construct, in order to maximize stability during the incubation procedure. A randomized sequence was used as a negative control.
These peptides were dissolved in DMSO (dimethyl sulfoxide) to maintain stability. This solvent slightly altered the shape of some cells at lower dilutions of peptide, giving a high background. Therefore, to avoid any interference with the results, RG cells were incubated in the presence of peptide concentrations ranging from […] to 10^-7 M for 72 hours. Positive cells were counted and data are presented as the number greater than the baseline number of maximal mature glia in untreated control cultures achieved by day 3, taken to be zero. Results are shown in Table 3 and photos of transformed cells are contained in FIGS. 9A and 9B.

[3] = test system: THP-1 cells; assay: Ca+2 mobilization (Indo-1AM fluorescence) and desensitization in THP-1 monocytic cells; format: cell-based; conditions: for Ca^+2 flux: peptide alone; for DESENSITIZATION: desensitization of subsequent Ca+2 mobilization by MCP-1 or heterologous septapeptide
Description: Alternately, chemokine activity can be measured more quantitatively using Ca^+2 mobilization. Chemokines including MCP-1, -2 and -3 bind to several transmembrane, G-protein-linked receptors on the surface of monocytes, macrophages and microglia. Ligand binding induces signal transduction through the receptor-associated heterotrimeric G-proteins, leading to the generation of free Ca^+2 in the cytoplasm of chemokine-stimulated cells. The Ca^+2 rise is transient, and can be measured using a spectrofluorimeter. (The Cytokine Handbook) A typical readout is represented in FIG. 3, showing a positive Ca^+2 mobilization response to MCP-1 in THP-1 cells. THP-1 monocytic cells were loaded with the Ca^+2 indicator dye Indo-1AM and their cytoplasmic Ca^+2 content was measured during laser excitation. As Ca^+2 increases in the cytoplasm, the relative fluorescence intensity (RFI) of the dye increases in real time, exciting the detectors in the spectrofluorimeter. For example, after MCP-1 challenge of THP-1 cells, the RFI increases rapidly, and returns to baseline after about 60 seconds, as exemplified by the “spike” in the trace in FIG. 3 (the smaller peak before the large spike is an artifact generated by the introduction of the sample). Because the heterotrimeric G-proteins involved in the generation of the Ca^+2 signal are both rapidly dissociated and deactivated by phosphorylation, the increase in cytoplasmic Ca^+2 after ligand engagement can be desensitized. Therefore, challenging the cells a second time with MCP-1 would not result in a second spike, nor would a Ca^+2 spike result from subsequent challenge by another ligand which engages the same MCP-1 receptor
Some of the bacterial septapeptide MRHAS's (Sigma) were tested for their ability to increase cytoplasmic Ca^+2, and to desensitize subsequent Ca^+2 mobilization by MCP-1 and heterologous septapeptides. […] These included QQTAPKA (SEQ ID NO: 12) of L.monocytogenes (Figure. 4) and QVQNNKP (SEQ ID NO: 13) from H.influenzae type b (FIG. 5).

In the case of `CCCC(=O)Nc1ncnc2c1ncn2[C@@H]1O[C@@H]2COP(=O)(O)O[C@H]2[C@H]1OC(=O)CCC` [diBcAMP, dibutyryl cyclicAMP], the “cells with intracellular astrocyte-specific GFA protein” value [1] is listed as 80% and the “cells with surface oligodendrocyte-specific galactocerebroside (GC)” value [1] is listed as “less than 10%”.

In the case of “FLVKAHEQFH [Peptide #3, reference compound]”, the “Maturation activity, % conversion” value ([2]; peptide 10^−6 M (1 uM)) is reported as <1% and the “Maturation activity, % conversion” value ([2]; peptide 10^−7 M (100 nM)) is reported as <1%.

For “MCP-1: human Monocyte Chemoattractant Protein 1, chemokine, positive control”, the “Ca^+2 flux” value [3] was “positive” and the “Ca^+2 flux” value ([3]; listed as hMCP-1) was “positive Ca^+2 responses”.

With “QQQPPKA [S. pneumoniae-derived MRHAS septapeptide]” the DESENSITIZATION [3] was “blocks activation by the Listeria-derived MRHAS; also recorded: positive for QQTAPKA” and the “Ca^+2 flux” value [3] was “negative; also recorded: did not induce a Ca^+2 signal”.

For “QQTAPKA [L. monocytogenes-derived MRHAS septapeptide]”, the DESENSITIZATION [3] was “lack of subsequent desensitization to MCP 1; also recorded: negative for MCP-1” and the “Ca^+2 flux” value [3] was “positive; also recorded: mild Ca^+2 agonists”.

In the case of “QVQNNKP [H. influenzae type b-derived MRHAS septapeptide]”, the “relative fluorescence intensity (RFI)” value ([3]; Ca+2 mobilization response) is reported as 2.0, the DESENSITIZATION [3] is reported as “blocks activation by the Listeria-derived MRHAS; also recorded: positive for QQTAPKA” and the “Ca^+2 flux” value [3] is reported as “mild Ca^+2 agonists; also recorded: weakly positive”.

For ^1DAEFRHDSGYEVHHQKLVF^19 [Peptide #1], the “Maturation activity, % conversion” value ([2]; peptide 10^−6 M (1 uM)) was 63% and the “Maturation activity, % conversion” value ([2]; peptide 10^−7 M (100 nM)) was 41%.

With “^13HHEQKLVFFAE^22 (HHQKLVFFAE) [Peptide #2]” the “Maturation activity, % conversion” value ([2]; peptide 10^−6 M (1 uM)) was 41%, the “Maturation activity, % conversion” value ([2]; peptide 10^−7 M (100 nM)) was 27% and the “Maturation activity, % conversion” value ([2]; peptide 10^−7 M (100 nM), listed as HHQKLVFFAE) was 27%.
